This note sets out measurements from paper PMC9061853, “Luminescent bis(benzo[d]thiazolyl)quinoxaline: facile synthesis, nucleic acid and protein BSA interaction, live-cell imaging, biopharmaceutical research and cancer theranostic application” (RSC Advances, 2019).

The test system of one series is HEK-293. As to the kind of experiment: MTT cytotoxicity assay, HEK-293 normal cells. Conditions: 24 h incubation. It counts as cell-based, human. How it is done: (§1) Cytotoxicity studies were performed for all the synthesized quinoxaline compounds (7a–7g) using standard 3-(4,5-dimethylthiazol-2-yl)-2,5-diphenyltetrazolium bromide (MTT) assay beside a panel of cancer cell lines such as human epithelioid cervix carcinoma (HeLa), human colorectal adenocarcinoma cell line (Caco-2) and one normal human embryonic kidney cells (HEK-293) in triplicates (Table 3). […] It is noteworthy to mention that Compound 7a and 7g presented best cytoselectivity in HeLa and Caco-2 cell lines respectively. […]
(§2) In vitro cytotoxic activities (MTT assay):
(§3) The basic detection of cytotoxicity of anticancer compounds in vitro is MTT assay. The MTT proliferation assay is based on the reduction of the yellow MTT tetrazolium salt (3-[4,5-dimethylthiazol-2-yl]-2,5diphenyltetrazolium bromide) by mitochondrial dehydrogenases to form a purple MTT formazan crystals in viable cells. Synthesized compounds (7a-g) were prior dissolved in 0.1% DMSO and then serial dilution with medium and used in the experiment. Three different types of cancer cell lines were used in this experiment i.e., human Epitheloid Cervix Carcinoma (HeLa), human colon cancer cell line (Caco-2) and one normal kidney cell (HEK-293) were used in the assay. The cells were harvested at the log phase and it is cell counted using haemocytometer. Approximately 1 × 10^3 cells per well were seeded using all the cell lines. They were cultured in 100 μL of a DMEM media in 96-well plates and incubated at 37 °C for 24 hours under a 5% CO2 atmosphere. The cells were then washed with 1X PBS buffer and fresh media was added to the cells. The cells were then treated with different concentrations of the drugs (0.65-150 µM) in the volume of […] /well. Cisplatin has been used as a standard positive control drug. The control wells contains the same cell count of 1 × 10^3 cells per well of 100 μL medium containing 0.1% DMSO. After 24 h (for HeLa cell and HEK-293) and 72 h (for Caco-2), the medium was discarded and it is washed with 1X PBS and it was incubated with 100 µl of MTT reagent (1 mg/ml) for 4 h at 37°C.
(§4) Then the 96 well plate was placed on the shaker for 10 min and subsequently the absorbance was recorded by the ELISA reader at λ = 490 nm. The experiments were performed in […]
(§5) triplicate. […]
(Tetrazolium assays rely on reduction of a dye to a coloured formazan, in cell work by metabolically active cells.)

Series [1] in a line: Fluorescence quantum yield in water. It counts as physicochemical. The following applies: 298 K, quinine sulphate as standard. As for the experimental part: To know the absorption and emission behaviour of these synthesized compounds (7a–g), a standard concentration (3 × 10^−6 mol l^−1) in water has been used. In UV-vis spectra, λmax of all these compounds are observed at 320–330 nm due to π–π* transition (Fig. S1a ^†). The corresponding emission peaks are observed at 400–500 nm (Fig. S1b ^†). The emission of quantum yield (Φ) was calculated for all of the compounds (7a–g) using eqn (1) (Table S1 ^†). […]
2.6.2. Fluorescence study:
To know the emission property of all the synthesized complexes (7a-g), an initial investigation was performed using spectrofluorometric method in water by using absorption maximum as their excitation energy. Fluorescence quantum yield (Ф) of all the prepared compounds performed in water solution were calculated by employing the comparative William's method which involves the use of well-characterized standard with the known quantum yield value. Quinine sulphate was used as reference fluorophore excited at 350 nm and emission at 452 nm, quantum yield (ФR) = 0.50 in 1N H2SO4. The gradients of the plots are proportional to the quantum yield (Ф) of the studied system. The data obtained and quantum yield value calculated according to the equation (2): […]
Where, φ = Quantum yield, I = Peak Area, OD = absorbance at λmax, η = Refractive index of solvent and reference. Here, we have used Quinine Sulphate as a standard for calculating emission of quantum yield. […]

The next series has as its system Caco-2. As to the kind of experiment: MTT cytotoxicity assay, Caco-2. It counts as cell-based, human. Conditions: Homo sapiens, Caco-2; 72 h incubation.
Text: as §2
as §3, with “/well.” for “/well. Cisplatin has been used as a standard positive control drug. The control wells contains the same cell count of 1 × 10^3 cells per well of 100 μL medium containing 0.1% DMSO. After 24 h (for HeLa cell and HEK-293) and 72 h (for Caco-2), the medium was discarded and it is washed with 1X PBS and it was incubated with 100 µl of MTT reagent (1 mg/ml) for 4 h at 37°C.”
(§6) The control wells contains the same cell count of 1 × 10^3 cells per well of 100 μL medium containing 0.1% DMSO. After 24 h (for HeLa cell and HEK-293) and 72 h (for Caco-2), the medium was discarded and it is washed with 1X PBS and it was incubated with 100 µl of MTT reagent (1 mg/ml) for 4 h at 37°C.
as §4, §5

Series [2] can be described thus: MTT cytotoxicity assay, Caco-2. It counts as cell-based, human. The following applies: human, Caco-2, ratio of IC50 for HEK-293 to IC50 for Caco-2; read-out: SF (selectivity factor) Caco-2.
Text: as §2
as §3, with “/well.” for “/well. Cisplatin has been used as a standard positive control drug. The control wells contains the same cell count of 1 × 10^3 cells per well of 100 μL medium containing 0.1% DMSO. After 24 h (for HeLa cell and HEK-293) and 72 h (for Caco-2), the medium was discarded and it is washed with 1X PBS and it was incubated with 100 µl of MTT reagent (1 mg/ml) for 4 h at 37°C.”
as §6, §4, §5

For another series, the system named is HeLa. As to the kind of experiment: MTT cytotoxicity assay, HeLa. The class given is cell-based, human. Conditions: for IC50: 24 h incubation; for SF (selectivity factor) HeLa: ratio of IC50 for HEK-293 to IC50 for HeLa. How it is done:
as §1, §2, §3, §4, §5

Usually IC50 stands for the concentration that gives 50% inhibition. A low value points to higher potency. Usually melting point stands for the temperature of the solid-liquid transition. Turning to `Fc1ccc2nc(COc3ccccc3-c3nc4ccccc4s3)c(COc3ccccc3-c3nc4ccccc4s3)nc2c1` [Compound 7d], the melting point lay within 135 to 139 °C. In addition, the half-maximal inhibitory concentration (IC50) in the series with HEK-293 (Homo sapiens, HEK293) was above 200 µM. Moreover, the “Φ, emission quantum yield” value in series [1] is listed as 0.04. In addition, the IC50 with Caco-2 was found to be 92 ± 4.9 µM. In series [2], the selectivity ratio was above 2.17. In addition, the IC50 with HeLa (Homo sapiens, HeLa) came to 117 ± 5.4 µM. In addition, in the series with HeLa, the “SF (selectivity factor) HeLa” value was above 1.7.
As to `N.N.[Cl][Pt][Cl]` [Cisplatin, reference compound], the results for the IC50 in the series with HEK-293 and in the series on HeLa were 50 ± 1.2 µM and 14.5 ± 0.8 µM, respectively.
For `Brc1ccc2nc(COc3ccccc3-c3nc4ccccc4s3)c(COc3ccccc3-c3nc4ccccc4s3)nc2c1` [Compound 7b], the melting point came out at 145 °C. In addition, it took 140 ± 1.4 µM to reach half-maximal inhibition in the series with HEK-293 (Homo sapiens, HEK293) (IC50). Moreover, in series [1], the “Φ, emission quantum yield” value was 0.017. Also, 109 ± 0.8 µM corresponded to half-maximal inhibition in the series on Caco-2 (IC50). For the same compound, the selectivity ratio in series [2] turned out to be 1.28. The compound also yielded an IC50 with HeLa (Homo sapiens, HeLa) above 100 µM. Besides, in the series with HeLa, the “SF (selectivity factor) HeLa” value is listed as below 1.4.
`Fc1cc2nc(COc3ccccc3-c3nc4ccccc4s3)c(COc3ccccc3-c3nc4ccccc4s3)nc2cc1Cl` [Compound 7f]: the concentration for half-maximal inhibition (IC50) with HEK-293 (Homo sapiens, HEK293) is above 200 µM; with Caco-2 it was above 100 µM; with HeLa (Homo sapiens, HeLa) it was 44.3 ± 0.3 µM. For the same compound, the “Φ, emission quantum yield” value in series [1] amounted to 0.014. For the same compound, in series [2], the selectivity ratio was above 2. Moreover, the “SF (selectivity factor) HeLa” value in the series with HeLa is given as above 4.5.
`Clc1ccc2nc(COc3ccccc3-c3nc4ccccc4s3)c(COc3ccccc3-c3nc4ccccc4s3)nc2c1` [Compound 7c] displayed a melting point of 150 °C. In the series with HEK-293 (Homo sapiens, HEK293), the IC50 worked out at 160 ± 2.1 µM. In addition, in series [1], the “Φ, emission quantum yield” value is on record as 0.017. In the series with Caco-2, this compound showed an IC50 of 75 ± 3.5 µM. The selectivity ratio in series [2] came out at 2.13. The IC50 in the series with HeLa (Homo sapiens, HeLa) was determined as 68.61 ± 0.2 µM. The “SF (selectivity factor) HeLa” value in the series with HeLa was determined as 2.3.
As to `c1ccc(-c2nc3ccccc3s2)c(OCc2nc3ccccc3nc2COc2ccccc2-c2nc3ccccc3s2)c1` [Compound 7a], the melting point is 130 to 135 °C. Further, half-maximal inhibition in the series with HEK-293 (Homo sapiens, HEK293) (IC50) required 120 ± 0.9 µM. Also, in series [1], the “Φ, emission quantum yield” value is 0.006. In the series on Caco-2, this compound gave an IC50 of 69.8 ± 0.8 µM. In series [2], the selectivity ratio is 1.71. Moreover, half-maximal inhibition in the series with HeLa (Homo sapiens, HeLa) (IC50) required 73.1 ± 1.7 µM. In the series with HeLa, the “SF (selectivity factor) HeLa” value came out at 1.6.
